# Results reported in patent publication US20110183926A1, “TREATMENT USING CONTINUOUS LOW DOSE APPLICATION OF SUGAR ANALOGS” (UNIVERSITY OF MIAMI, priority 2008, published 2011).
# Tested on: MDA-MB-435 cells
# Test: orthotopic human breast cancer mouse model, continuous 2-DG by intraperitoneal osmotic pump
# Format: in vivo
# Conditions: 19 μg/ml/hr or 30 mg/kg per 24 hrs continuously for 4 weeks; intraperitoneal osmotic pump filled with 328 mg/ml; MDA-MB-435 orthotopic in CD-1 nude mice
# Protocol: 2×10^6 MDA-MB-435 cells were injected orthotopically to CD-1 nude mice. After two weeks, osmotic pumps (Model 1004, Alzet Inc.) were inserted into the peritoneal cavity under general anesthesia. In one group of animals (n=9), the pumps contained 0.9% NaCl, while in the other group (n=5), the pumps were filled with 2-DG at a concentration of 328 mg/ml. Mice were weighed, and tumor measurements were taken by caliper three times weekly. Tumor measurements were converted to tumor volume by using the formula W×L^2/2. Mice were killed when either W or L exceeded 15 mm. At sacrifice, mice were weighed, and tumors were excised and checked histologically for verification of tumor growth.
smiles,measurement,value
"O=CC[C@@H](O)[C@H](O)[C@H](O)CO [2-DG, 2-deoxy-D-glucose]","tumor burden (tumor volume by caliper, W×L^2/2)",effectively reduces tumor burden
